# Test results as given in patent publication US5952473A, “Reagent and kit for determining isoprenylating activity and inhibition thereof” (priority 1993, dated 1999).
# Target: T1, protein:farnesyl transferase (Oryctolagus cuniculus, UniProt G1SFC8+G1T7D9)
# T1 construct: immobilised CAAX peptide A and 3H-FPP as substrates
# Experiment: Inhibition of protein:farnesyl transferase activity in rabbit reticulocyte lysate (pepAsep/pepBsep, 3H-FPP)
# Type: biochemical
# Conditions: read-out: IC50 -value, 80 pmol peptide on Sepharose beads, 0.7 μM 3H-FPP, 30 min, 37° C., pepAsep minus pepBsep dpm
# Protocol: Commercially available rabbit reticulocyte lysate contains enzymes necessary for protein-isoprenylation, such as protein:farnesyl transferase activity (Vorburger, K., Kitten, G. T. and Nigg, E. G., EMBO J. 8 (1989) 4007-4013) and protein:geranylgeranyl transferase (Maltese, W. A. and Robishaw, J. D., J. Biol. Chem. 265 (1990) 18071-18074). Using pepAsep (example I) as substrate and pepBsep (example I) as control the assay of protein:farnesyl transferase activity was performed as follows: In 25 μl of a mixture containing 5 μl of pepAsep or pepBsep (both containing an equal quantity of peptide), 13 μl rabbit reticulocyte lysate (promega), 0.5 mM MgCl2, 1 mM DTT, 50 mM Tris-HCl (pH 7.4) and [^3 H]-farnesyl pyrophosphate (^3 H-FPP; concentration as indicated in the figures; specific radioactivity 15 Ci/mmol; ARC, USA) the incubation was performed at 37° C. for 30 min with continuous shaking. […] The radioactivity bound to the Sepharose was measured in a Packaged Tricarb liquid scintillation counter. […]
# 80 pmol of pepAsep and pepBsep/5 μl Sepharose were incubated for 30 minutes in the presence of 0.7 μM of [^3 H]-FPP and the indicated concentrations of the farnesyl pyrophosphate analogues FPPA1 and FPPA2 as mentioned in Example IV. The farnesylation activity was calculated as ^3 H-dpm bound to pepAsep minus the pepBsep-bound-dpm and expressed as percentage of control (without inhibitor).
compound,measurement,value
"CC(C)=CCCC(C)=CCCC(C)=CCP(=O)(O)OP(=O)(O)O [FPPA2, farnesyl phosphonophosphate]",IC50,290 ± 20 nM
